Test results taken from US20070049564A1 (Wyeth, priority 2005, published 2007).
Read-outs that look alike come from different tables or passages of the source.

Columns and labels:
[1] = test system: E. faecium GC 4556; assay: MIC, broth microdilution; conditions: Enterococcus faecium
[2] = test system: E. coli GC 4559; assay: MIC, broth microdilution; conditions: Escherichia coli
Experimental: (§1) Antimicrobial susceptibility testing. The in vitro activities of the antibiotics are determined by the broth microdilution method as recommended by the National Committee for Clinical Laboratory Standards (NCCLS) (1). Mueller-Hinton II broth (MHBII)(BBL Cockeysville, Md.) is the medium employed in the testing procedures. Microtiter plates containing serial dilutions of each antimicrobial agent are inoculated with each organism to yield the appropriate density (10^5 CFU/ml) in a 100 μl final volume. The plates are incubated for 18-22 hours at 35° C. in ambient air.
(§2) Representative compounds were first incubated in mouse serum for an hour prior to the in vitro testing against a panel of selected gram-positive and gram-negative bacteria strains. All compounds were also pre-incubated in water for an hour prior to testing as control. Representative compounds of Formula I were incubated in human serum prior to MIC determination.

[3] = test system: P. aeruginosa GC 2214; assay: MIC, broth microdilution; conditions: Pseudomonas aeruginosa
[4] = test system: S. pyogenes GC 4563; assay: MIC, broth microdilution; conditions: Streptococcus pyogenes
[5] = test system: E. coli GC 2236; assay: MIC, broth microdilution; conditions: Escherichia coli
[6] = test system: E. coli GC 2234; assay: MIC, broth microdilution; conditions: Escherichia coli
[7] = test system: E. coli GC 2233; assay: MIC, broth microdilution; conditions: Escherichia coli
Experimental: as §1
Representative compounds were first incubated in mouse serum for an hour prior to the in vitro testing against a panel of selected gram-positive and gram-negative bacteria strains. All compounds were also pre-incubated in water for an hour prior to testing as control.

[8] = test system: S. aureus GC 1131; assay: MIC, broth microdilution; conditions: Staphylococcus aureus
[9] = test system: E. coli GC 2270; assay: MIC, broth microdilution; conditions: Escherichia coli
[10] = test system: S. epidermidis GC 4935; assay: MIC, broth microdilution; conditions: Staphylococcus epidermidis
[11] = test system: S. aureus GC 1079; assay: MIC, broth microdilution; conditions: Staphylococcus aureus
Experimental: as §1, §2

[12] = test system: Staph. aureus Smith; assay: In vivo activity (oral, iv; ED50) against Staph. aureus Smith in mice
Experimental: Representative examples of compounds of Formula I were tested for the oral efficacy using S. aureus Smith in mice.

[13] = test system: E. coli GC 2271; assay: MIC, broth microdilution; conditions: Escherichia coli
[14] = test system: S. aureus GC 2216; assay: MIC, broth microdilution; conditions: Staphylococcus aureus
[15] = test system: c. albicans GC 3066; assay: MIC, broth microdilution
[16] = test system: E. coli GC 2235; assay: MIC, broth microdilution; conditions: Escherichia coli
[17] = test system: E. coli GC 1073; assay: MIC, broth microdilution; conditions: Escherichia coli
[18] = test system: E. faecalis GC 2242; assay: MIC, broth microdilution; conditions: Enterococcus faecalis
[19] = test system: S. aureus GC 6335; assay: MIC, broth microdilution; conditions: Staphylococcus aureus
[20] = test system: S. pneumoniae+ GC 4465; assay: MIC, broth microdilution; conditions: Streptococcus pneumoniae

CN(C)c1cc(NC(=O)CN(C(=O)OCOC(=O)C2CCCCC2)C(C)(C)C)c(O)c2c1C[C@H]1C[C@H]3[C@H](N(C)C)C(O)=C(C(N)=O)C(=O)[C@@]3(O)C(O)=C1C2=O [Example 50, ({[(2-{[(5aR,6aS,7S,10aS)-9-(aminocarbonyl)-4,7-bis(dimethylamino)-1,8,10a,11-tetrahydroxy-10,12-dioxo-5,5a,6,6a,7,10,10a,12-octahydrotetracen-2-yl]amino}-2-oxoethyl)(tert-butyl)amino]carbonyl}oxy)methyl cyclohexanecarboxylate]
0.12 µg/mL: MIC ([4]; GC4563, read-out: MINIMAL INHIBITORY CONCENTRATION MIC, Human Serum) | MIC ([4]; GC4563, read-out: MINIMAL INHIBITORY CONCENTRATION MIC, Mouse Serum)
16.9 mg/kg: ED50 ([12]; Staphylococcus aureus, in Mus musculus, po, read-out: ED50 SOD (Staph aureus Smith)) | ED50 ([12]; Staphylococcus aureus, in Mus musculus, po, read-out: ED50 Staph Smith SOD)
0.5 µg/mL: MIC ([8]; GC1131, read-out: MINIMAL INHIBITORY CONCENTRATION MIC, Human Serum) | MIC ([8]; GC1131, read-out: MINIMAL INHIBITORY CONCENTRATION MIC, Mouse Serum) | MIC ([11]; GC1079, read-out: MINIMAL INHIBITORY CONCENTRATION MIC, Human Serum) | MIC ([11]; GC1079, read-out: MINIMAL INHIBITORY CONCENTRATION MIC, Mouse Serum) | MIC ([14]; GC2216, read-out: MINIMAL INHIBITORY CONCENTRATION MIC, Human Serum) | MIC ([20]; read-out: MINIMAL INHIBITORY CONCENTRATION MIC, Human Serum) | MIC ([20]; read-out: MINIMAL INHIBITORY CONCENTRATION MIC, Mouse Serum) | MIC ([20]; read-out: MINIMAL INHIBITORY CONCENTRATION MIC, Water)
4 µg/mL: MIC ([10]; GC4935, read-out: MINIMAL INHIBITORY CONCENTRATION MIC, Water) | MIC ([13]; GC2271, read-out: MINIMAL INHIBITORY CONCENTRATION MIC, Human Serum) | MIC ([16]; GC2235, read-out: MINIMAL INHIBITORY CONCENTRATION MIC, Human Serum)
0.25 µg/mL: MIC ([4]; GC4563, read-out: MINIMAL INHIBITORY CONCENTRATION MIC, Water)
1 µg/mL: MIC ([1]; GC4556, read-out: MINIMAL INHIBITORY CONCENTRATION MIC, Human Serum) | MIC ([1]; GC4556, read-out: MINIMAL INHIBITORY CONCENTRATION MIC, Mouse Serum) | MIC ([5]; GC2236, read-out: MINIMAL INHIBITORY CONCENTRATION MIC, Mouse Serum) | MIC ([6]; GC2234, read-out: MINIMAL INHIBITORY CONCENTRATION MIC, Mouse Serum) | MIC ([7]; GC2233, read-out: MINIMAL INHIBITORY CONCENTRATION MIC, Mouse Serum) | MIC ([8]; GC1131, read-out: MINIMAL INHIBITORY CONCENTRATION MIC, Water) | MIC ([9]; GC2270, read-out: MINIMAL INHIBITORY CONCENTRATION MIC, Mouse Serum) | MIC ([13]; GC2271, read-out: MINIMAL INHIBITORY CONCENTRATION MIC, Mouse Serum) | MIC ([14]; GC2216, read-out: MINIMAL INHIBITORY CONCENTRATION MIC, Mouse Serum) | MIC ([16]; GC2235, read-out: MINIMAL INHIBITORY CONCENTRATION MIC, Mouse Serum) | MIC ([18]; GC2242, read-out: MINIMAL INHIBITORY CONCENTRATION MIC, Human Serum) | MIC ([18]; GC2242, read-out: MINIMAL INHIBITORY CONCENTRATION MIC, Mouse Serum) | MIC ([19]; GC6335, read-out: MINIMAL INHIBITORY CONCENTRATION MIC, Human Serum) | MIC ([19]; GC6335, read-out: MINIMAL INHIBITORY CONCENTRATION MIC, Mouse Serum) | MIC ([19]; GC6335, read-out: MINIMAL INHIBITORY CONCENTRATION MIC, Water)
64 µg/mL: MIC ([2]; GC4559, read-out: MINIMAL INHIBITORY CONCENTRATION MIC, Water) | MIC ([6]; GC2234, read-out: MINIMAL INHIBITORY CONCENTRATION MIC, Water)
1.65 mg/kg: ED50 ([12]; Staphylococcus aureus, in Mus musculus, iv, read-out: ED50 SIV (Staph aureus Smith)) | ED50 ([12]; iv, read-out: ED50 Staph Smith SIV)
32 µg/mL: MIC ([3]; GC2214, read-out: MINIMAL INHIBITORY CONCENTRATION MIC, Mouse Serum) | MIC ([5]; GC2236, read-out: MINIMAL INHIBITORY CONCENTRATION MIC, Water) | MIC ([7]; GC2233, read-out: MINIMAL INHIBITORY CONCENTRATION MIC, Water) | MIC ([9]; GC2270, read-out: MINIMAL INHIBITORY CONCENTRATION MIC, Water) | MIC ([13]; GC2271, read-out: MINIMAL INHIBITORY CONCENTRATION MIC, Water) | MIC ([16]; GC2235, read-out: MINIMAL INHIBITORY CONCENTRATION MIC, Water) | MIC ([17]; GC1073, read-out: MINIMAL INHIBITORY CONCENTRATION MIC, Water)
16 µg/mL: MIC ([2]; GC4559, read-out: MINIMAL INHIBITORY CONCENTRATION MIC, Human Serum)
> 64 µg/mL: MIC ([3]; GC2214, read-out: MINIMAL INHIBITORY CONCENTRATION MIC, Human Serum) | MIC ([3]; GC2214, read-out: MINIMAL INHIBITORY CONCENTRATION MIC, Water) | MIC ([15]; Candida albicans, GC3066, read-out: MINIMAL INHIBITORY CONCENTRATION MIC)
8 µg/mL: MIC ([5]; GC2236, read-out: MINIMAL INHIBITORY CONCENTRATION MIC, Human Serum) | MIC ([6]; GC2234, read-out: MINIMAL INHIBITORY CONCENTRATION MIC, Human Serum) | MIC ([7]; GC2233, read-out: MINIMAL INHIBITORY CONCENTRATION MIC, Human Serum) | MIC ([9]; GC2270, read-out: MINIMAL INHIBITORY CONCENTRATION MIC, Human Serum) | MIC ([17]; GC1073, read-out: MINIMAL INHIBITORY CONCENTRATION MIC, Human Serum)
>64 UG/ML: MINIMAL INHIBITORY CONCENTRATION MIC ([15]; Human Serum) | MINIMAL INHIBITORY CONCENTRATION MIC ([15]; Mouse Serum)
2 µg/mL: MIC ([1]; GC4556, read-out: MINIMAL INHIBITORY CONCENTRATION MIC, Water) | MIC ([2]; GC4559, read-out: MINIMAL INHIBITORY CONCENTRATION MIC, Mouse Serum) | MIC ([10]; GC4935, read-out: MINIMAL INHIBITORY CONCENTRATION MIC, Human Serum) | MIC ([10]; GC4935, read-out: MINIMAL INHIBITORY CONCENTRATION MIC, Mouse Serum) | MIC ([11]; GC1079, read-out: MINIMAL INHIBITORY CONCENTRATION MIC, Water) | MIC ([14]; GC2216, read-out: MINIMAL INHIBITORY CONCENTRATION MIC, Water) | MIC ([17]; GC1073, read-out: MINIMAL INHIBITORY CONCENTRATION MIC, Mouse Serum) | MIC ([18]; GC2242, read-out: MINIMAL INHIBITORY CONCENTRATION MIC, Water)
